Results on seven compounds are retold here after article PMC12951562, “SH2scan: Mapping SH2 Domain-Ligand Binding Selectivity for Inhibitors and Degraders” (Journal of Medicinal Chemistry, 2026).

What all share (assay): biochemical
Assay type in all cases: binding

One assay addresses T1, STAT6 (Homo sapiens, UniProt P42226).
T1 construct: made in house; host or cells: HEK293 (transient transfection), unpurified extract
T1 sequence (P42226 1-847): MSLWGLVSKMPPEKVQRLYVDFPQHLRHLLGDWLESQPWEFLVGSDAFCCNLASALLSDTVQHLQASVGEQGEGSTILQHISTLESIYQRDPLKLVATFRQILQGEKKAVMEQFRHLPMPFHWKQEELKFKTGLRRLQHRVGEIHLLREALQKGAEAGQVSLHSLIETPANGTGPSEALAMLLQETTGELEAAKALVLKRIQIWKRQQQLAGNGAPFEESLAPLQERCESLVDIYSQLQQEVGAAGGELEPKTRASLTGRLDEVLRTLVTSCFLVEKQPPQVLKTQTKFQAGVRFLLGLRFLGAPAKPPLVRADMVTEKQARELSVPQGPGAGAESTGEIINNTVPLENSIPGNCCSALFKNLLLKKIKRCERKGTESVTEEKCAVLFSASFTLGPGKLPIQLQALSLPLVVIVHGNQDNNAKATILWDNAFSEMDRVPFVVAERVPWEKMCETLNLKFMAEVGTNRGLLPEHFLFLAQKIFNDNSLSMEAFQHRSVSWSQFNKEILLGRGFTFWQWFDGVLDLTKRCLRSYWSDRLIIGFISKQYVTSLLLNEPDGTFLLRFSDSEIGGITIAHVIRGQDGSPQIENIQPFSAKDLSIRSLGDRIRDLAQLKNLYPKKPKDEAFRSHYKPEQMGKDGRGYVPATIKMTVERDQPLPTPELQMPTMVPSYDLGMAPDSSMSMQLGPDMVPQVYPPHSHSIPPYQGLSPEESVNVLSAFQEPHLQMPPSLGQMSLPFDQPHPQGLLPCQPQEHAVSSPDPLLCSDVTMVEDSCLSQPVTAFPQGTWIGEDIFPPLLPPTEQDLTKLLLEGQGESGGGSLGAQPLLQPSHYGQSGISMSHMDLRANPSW

A further assay has as its target T2, STAT5B (Homo sapiens, UniProt P51692).
T2 construct: made in house; host or cells: HEK293 (transient transfection), unpurified extract
T2 sequence (P51692 1-787): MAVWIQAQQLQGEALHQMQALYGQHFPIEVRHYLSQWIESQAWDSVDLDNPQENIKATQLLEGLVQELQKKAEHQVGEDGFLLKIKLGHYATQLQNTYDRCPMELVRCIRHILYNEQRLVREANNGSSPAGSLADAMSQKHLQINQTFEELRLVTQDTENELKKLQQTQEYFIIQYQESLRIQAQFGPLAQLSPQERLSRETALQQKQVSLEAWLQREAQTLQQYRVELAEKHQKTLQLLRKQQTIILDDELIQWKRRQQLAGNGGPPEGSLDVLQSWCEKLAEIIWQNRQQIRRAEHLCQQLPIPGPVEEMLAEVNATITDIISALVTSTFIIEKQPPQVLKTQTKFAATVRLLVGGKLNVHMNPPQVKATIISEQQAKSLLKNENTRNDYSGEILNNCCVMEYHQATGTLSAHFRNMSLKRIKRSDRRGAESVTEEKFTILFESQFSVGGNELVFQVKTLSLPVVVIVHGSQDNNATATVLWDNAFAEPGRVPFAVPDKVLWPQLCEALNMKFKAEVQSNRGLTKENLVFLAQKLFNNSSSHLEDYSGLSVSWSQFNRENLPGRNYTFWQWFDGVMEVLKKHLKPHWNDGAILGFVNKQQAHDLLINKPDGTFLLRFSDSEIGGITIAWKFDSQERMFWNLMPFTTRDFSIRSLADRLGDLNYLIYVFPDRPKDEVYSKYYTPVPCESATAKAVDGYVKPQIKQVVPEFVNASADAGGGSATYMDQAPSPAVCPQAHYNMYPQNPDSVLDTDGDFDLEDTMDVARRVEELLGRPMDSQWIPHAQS

For the next assay, the target named is T3, STAT5B(N642H) (Homo sapiens, UniProt P51692, N642H).
T3 construct: made in house; host or cells: HEK293 (transient transfection), unpurified extract
T3 sequence (P51692 1-787 N642H): T2 sequence (P51692 1-787) with N642H

Another assay has as its target T4, FER (Homo sapiens, UniProt P16591).
T4 construct: the DNA-tagged SH2 domain concentrations used in this study were <0.1 nM; made in house; host or cells: HEK293 (transient transfection; unpurified extract)

A further assay has as its target T5, STAT1 (Homo sapiens, UniProt P42224).
T5 construct: made in house; host or cells: HEK293 (transient transfection), unpurified extract
T5 sequence (P42224 1-750): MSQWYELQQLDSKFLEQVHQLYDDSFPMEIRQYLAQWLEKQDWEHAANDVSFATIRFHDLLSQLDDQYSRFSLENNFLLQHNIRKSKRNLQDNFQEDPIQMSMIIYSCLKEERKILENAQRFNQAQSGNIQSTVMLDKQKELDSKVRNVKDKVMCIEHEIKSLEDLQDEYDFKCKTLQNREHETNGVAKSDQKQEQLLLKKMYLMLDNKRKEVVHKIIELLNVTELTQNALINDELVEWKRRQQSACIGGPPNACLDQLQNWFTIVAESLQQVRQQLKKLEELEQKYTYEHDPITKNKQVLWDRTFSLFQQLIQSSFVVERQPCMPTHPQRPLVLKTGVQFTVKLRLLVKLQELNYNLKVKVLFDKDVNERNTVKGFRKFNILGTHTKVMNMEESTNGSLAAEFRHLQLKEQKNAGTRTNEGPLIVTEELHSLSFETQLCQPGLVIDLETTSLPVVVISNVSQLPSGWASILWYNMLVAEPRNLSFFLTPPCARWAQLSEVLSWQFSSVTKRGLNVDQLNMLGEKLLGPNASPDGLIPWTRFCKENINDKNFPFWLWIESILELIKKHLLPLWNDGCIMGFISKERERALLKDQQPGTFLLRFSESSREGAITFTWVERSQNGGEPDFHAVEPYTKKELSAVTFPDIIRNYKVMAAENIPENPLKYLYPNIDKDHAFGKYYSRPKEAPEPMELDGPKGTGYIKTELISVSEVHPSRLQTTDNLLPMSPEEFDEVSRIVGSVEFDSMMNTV

A further assay deals with T6, PIK3R2(SH2dom.C-term.) (Homo sapiens, UniProt O00459).
T6 construct: SH2dom.C-term. denotes SH2 domain closest to C-terminus of protein; made in house; host or cells: HEK293 (transient transfection, unpurified extract)
T6 sequence (O00459 622-716 limits assumed): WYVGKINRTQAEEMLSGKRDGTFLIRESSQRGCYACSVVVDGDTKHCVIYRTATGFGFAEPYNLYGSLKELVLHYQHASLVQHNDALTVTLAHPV

The next assay has as its target T7, PIK3R1(SH2dom.C-term.) (Homo sapiens, UniProt P27986).
T7 construct: SH2dom.C-term. denotes SH2 domain closest to C-terminus of protein; made in house; host or cells: HEK293 (transient transfection, unpurified extract)

A further assay addresses T8, PIK3R3(SH2dom.C-term.) (Homo sapiens, UniProt Q92569).
T8 construct: SH2dom.C-term. denotes SH2 domain closest to C-terminus of protein; made in house; host or cells: HEK293 (transient transfection, unpurified extract)

For a further assay, the target named is T9, ABL1 (Homo sapiens, UniProt P00519).
T9 construct: the DNA-tagged SH2 domain concentrations used in this study were <0.1 nM; made in house; host or cells: HEK293 (transient transfection; unpurified extract)
T9 sequence (P00519 127-217 limits assumed): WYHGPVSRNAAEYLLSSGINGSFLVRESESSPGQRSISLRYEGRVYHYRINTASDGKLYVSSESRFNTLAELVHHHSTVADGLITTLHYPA

In a further assay the target is T10, STAT4 (Homo sapiens, UniProt Q14765).
T10 construct: made in house; host or cells: HEK293 (transient transfection), unpurified extract
T10 sequence (Q14765 1-748): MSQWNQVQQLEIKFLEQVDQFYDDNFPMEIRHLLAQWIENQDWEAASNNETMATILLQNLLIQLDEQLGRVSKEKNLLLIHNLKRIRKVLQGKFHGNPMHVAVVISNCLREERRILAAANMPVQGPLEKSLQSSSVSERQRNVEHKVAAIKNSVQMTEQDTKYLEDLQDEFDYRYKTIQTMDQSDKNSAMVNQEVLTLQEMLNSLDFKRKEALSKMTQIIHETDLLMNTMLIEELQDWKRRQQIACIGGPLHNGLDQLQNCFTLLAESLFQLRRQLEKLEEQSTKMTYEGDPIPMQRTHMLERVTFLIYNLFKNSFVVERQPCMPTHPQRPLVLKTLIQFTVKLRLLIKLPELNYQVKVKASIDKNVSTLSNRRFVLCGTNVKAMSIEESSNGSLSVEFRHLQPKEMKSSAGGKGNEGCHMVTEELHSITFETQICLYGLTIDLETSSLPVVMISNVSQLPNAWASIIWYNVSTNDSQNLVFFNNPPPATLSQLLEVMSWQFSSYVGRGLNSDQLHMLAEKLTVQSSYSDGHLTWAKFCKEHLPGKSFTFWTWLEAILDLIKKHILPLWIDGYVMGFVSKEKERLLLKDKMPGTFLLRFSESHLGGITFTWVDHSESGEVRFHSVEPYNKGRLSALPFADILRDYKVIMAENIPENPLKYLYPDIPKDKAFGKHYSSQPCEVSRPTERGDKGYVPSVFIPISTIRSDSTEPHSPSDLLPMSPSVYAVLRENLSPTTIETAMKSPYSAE

Numbering of substitutions follows the chain as printed. Non-standard residues stand in square brackets, D forms with d. Residues, ends and D or L forms follow the SMILES beside them. pY = N[C@@H](Cc1ccc(OP(=O)(O)O)cc1)C(=O)O

T4 sequence (P16591 460-550 limits assumed): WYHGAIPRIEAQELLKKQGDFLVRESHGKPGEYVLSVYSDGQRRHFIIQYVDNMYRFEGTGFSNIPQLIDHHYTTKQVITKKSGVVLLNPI
T7 sequence (P27986 624-718 limits assumed): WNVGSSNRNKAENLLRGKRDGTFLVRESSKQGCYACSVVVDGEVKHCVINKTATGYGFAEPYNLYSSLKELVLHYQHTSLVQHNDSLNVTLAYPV

On STAT6, `CC[C@H](C)[C@H](NC(=O)[C@H](CC(C)C)NC(=O)[C@H](CC(=O)O)NC(=O)[C@H](CCC(N)=O)NC(=O)[C@H](Cc1ccccc1)NC(=O)[C@@H]1CCCN1C(=O)[C@H](CCCCN)NC(=O)[C@H](Cc1ccc(OP(=O)(O)O)cc1)NC(C)=O)C(N)=O` (Ac-[pY]KPFQDLI-NH2) displayed a Kd of 928 ± 249 nM.

`CC(C)C[C@H](NC(=O)[C@H](Cc1c[nH]c2ccccc12)NC(=O)[C@H](CCCCN)NC(=O)[C@H](CC(=O)O)NC(=O)[C@H](CC(C)C)NC(=O)[C@@H](NC(=O)[C@H](CC(C)C)NC(=O)[C@H](Cc1ccc(OP(=O)(O)O)cc1)NC(=O)[C@@H](NC(=O)[C@H](CC(=O)O)NC(=O)[C@@H](N)CCC(N)=O)[C@@H](C)O)C(C)C)C(=O)O` (H-QDT[pY]LVLDKWL-OH): the Kd on STAT5B was determined as 1020 ± 179 nM; on STAT5B(N642H) it was 97.8 ± 43.3 nM.

On FER, `CC(=O)N[C@@H](CC(=O)O)C(=O)N[C@@H](CCC(=O)O)C(=O)N[C@@H](Cc1ccc(OP(=O)(O)O)cc1)C(=O)N[C@@H](CCC(=O)O)C(=O)N[C@@H](CC(N)=O)C(=O)N[C@H](C(=O)N[C@@H](CC(=O)O)C(N)=O)C(C)C` [Ac-DEpYENVD-NH2] (Ac-DE[pY]ENVD-NH2) yielded a Kd of 7770 ± 2130 nM.

For the compound `CC(=O)NCC(=O)N[C@@H](Cc1ccc(OP(=O)(O)O)cc1)C(=O)N[C@@H](CC(=O)O)C(=O)N[C@@H](CCCCN)C(=O)N1CCC[C@H]1C(=O)N[C@@H](Cc1c[nH]cn1)C(=O)N[C@H](C(=O)N[C@@H](CC(C)C)C(N)=O)C(C)C` [Ac-GpYDKPHVL-NH2] (Ac-G[pY]DKPHVL-NH2), binding at STAT1 was characterised by a dissociation constant (Kd) of 155 ± 38.2 nM.

As to `CSCC[C@H](NC(=O)[C@@H]1CCCN1C(=O)[C@@H](NC(=O)[C@H](Cc1ccc(OP(=O)(O)O)cc1)NC(=O)CNC(C)=O)C(C)C)C(=O)N[C@@H](CC(C)C)C(=O)O` [Ac-GpYVPML-OH] (Ac-G[pY]VPML-OH), the results for the Kd at PIK3R2(SH2dom.C-term.), at PIK3R1(SH2dom.C-term.) and on PIK3R3(SH2dom.C-term.) were 4.82 ± 1.95 nM, 4.24 ± 0.48 nM and 2.27 ± 0.32 nM, respectively.

On ABL1, `CC(=O)N[C@@H](CCCCN)C(=O)N[C@@H](CCC(=O)O)C(=O)N[C@@H](CCC(=O)O)C(=O)NCC(=O)N[C@@H](Cc1ccc(OP(=O)(O)O)cc1)C(=O)N[C@@H](CCC(=O)O)C(=O)N[C@@H](CC(C)C)C(=O)N1CCC[C@H]1C(=O)N[C@@H](Cc1ccc(O)cc1)C(=O)N[C@@H](CC(N)=O)C(=O)N1CCC[C@H]1C(N)=O` [Ac-KEEGpYELPYNP-NH2] yielded a Kd of 28800 ± 8130 nM.

At STAT4, `CSCC[C@H](NC(=O)[C@H](CC(=O)O)NC(=O)[C@H](Cc1ccc(OP(=O)(O)O)cc1)NC(=O)[C@H](CC(=O)O)NC(=O)[C@H](Cc1ccccc1)NC(=O)[C@H](CO)NC(C)=O)C(=O)N1CCC[C@H]1C(=O)N[C@@H](Cc1c[nH]cn1)C(=O)N[C@H](C(=O)N[C@@H](CC(C)C)C(N)=O)C(C)C` [Ac-SFDpYDMPHVL-NH2] (Ac-SFD[pY]DMPHVL-NH2) showed a Kd of 1280 ± 133 nM.

In general, Kd refers to the free concentration of one partner at which half of the binding sites on the other are occupied at equilibrium, for simple one-to-one binding. A higher Kd goes with lower affinity.
